Square brackets hold non-standard residues; d marks the D form. Peptide text beside a SMILES is read from it.
How the values were obtained:
[1] = In vitro proteolysis assay in human serum; format: in vitro ADME
Procedure: (§1) Ten μl of a 300 M solution of hGHRH (1-29)NH2 or of a GHRH analogue was solubilized in dimethylsulfoxide (DMSO) and incubated in one of the following conditions: a—190 μl serum (1/100 dilution in picopure water) from 2-month-old male Sprague Dawley rats, at 37° C. for 0, 8, 15, 30 or 60 min, in polypropylene tubes; b—190 μl of human healthy volunteer plasma (from Human Whole Blood Na EDTA, males, drug free (Algorithme Pharma Inc.); project: MTL-P2-155; Lot: MTLP2155-01, supplied by LAB Dev Int); and c—190 μl of human healthy volunteer pooled serum, Lot: X409 (supplied by LAB Dev Int), at 37° C. for 0, 60, 120, 180 or 420 min, in polypropylene tubes. Proteolysis was stopped by adding 800 μl of ice-cold stop buffer (potassium-phosphate buffer, acidified to pH 0.8 with trifluoroacetic acid (TFA) and boiling 5 min (rat serum only). After centrifugation (12000 g, 5 min, 4° C.) (rat serum only), serum-peptide mixtures were passed through a conditioned Sep-Pak C-18 cartridge to extract native GHRH or a GHRH analogue residual concentrations from serum proteins. The native GHRH or the analogue was eluted in 2 ml of 50% acetonitrile-0.01% TFA/50% 0.01% aqueous TFA. Two hundred μl of extracted peptide, representing 1 μg of GHRH or analogue at time 0, was quantified by analytical HPLC, using one μ-Bondapak C18 column (10 μm particle size, 0.39×15 cm) (rat serum) or two C18 column in series (human serum and plasma) and a binary solvent system composed of NaClO4 0.01 M, pH 2.5 and acetonitrile. A linear gradient from 30 to 60% acetonitrile over 45 min (rat serum) or 30 to 50% (human serum and plasma) was used.
(§2) More specifically, the values represent the mean, standard deviation and standard error from the mean of 3 to 7 experiments.

[2] = In vitro proteolysis assay in rat serum; format: in vitro ADME; conditions: mean±SEM
Procedure: Proteolysis was stopped by adding 800 μl of ice-cold stop buffer (potassium-phosphate buffer, acidified to pH 0.8 with trifluoroacetic acid (TFA) and boiling 5 min (rat serum only). After centrifugation (12000 g, 5 min, 4° C.) (rat serum only), serum-peptide mixtures were passed through a conditioned Sep-Pak C-18 cartridge to extract native GHRH or a GHRH analogue residual concentrations from serum proteins. The native GHRH or the analogue was eluted in 2 ml of 50% acetonitrile-0.01% TFA/50% 0.01% aqueous TFA. Two hundred μl of extracted peptide, representing 1 μg of GHRH or analogue at time 0, was quantified by analytical HPLC, using one μ-Bondapak C18 column (10 μm particle size, 0.39×15 cm) (rat serum) or two C18 column in series (human serum and plasma) and a binary solvent system composed of NaClO4 0.01 M, pH 2.5 and acetonitrile. A linear gradient from 30 to 60% acetonitrile over 45 min (rat serum) or 30 to 50% (human serum and plasma) was used.

in vitro = conditions: male, human, plasma
Procedure: as §1, §2

male Beagle dog = assay: In vivo GH secretion after escalating SC injections in a male Beagle dog; conditions: AUC not measured
Procedure: The ability of human GHRH analogue #5 (human [D-Ala^2, D-Tyr^10, D-Ala^15, Lys^22] GHRH (1-29)NH2 analogue) to stimulate GH secretion was studied in adult female rats (26-34 weeks at onset of treatment) and in a male Beagle dog.
Human GHRH analogue #5, in 0.9% sodium chloride for injection USP, was administered on days 3, 5 and 8 at dose levels of 0.01, 0.1, and 1 mg/kg body weight, respectively by subcutaneous (SC) injection to an approximately 8-month old male dog as shown in Table 3. On Day 1, the dog received the control (vehicle) article and on Day 11, the animal received the positive control, hGHRH (1-44)NH2 at a dose level of 0.01 mg/kg. Prior to administration, all dosing formulations were filtered using a 0.22 μm filter to ensure sterility. The actual amount of GHRH analogue #5 administered was calculated and adjusted based on the animal's most recent body weight. Dosing started at approximately the same time each day, commencing at 9:00 am±30 minutes. […]
Plasma GH was determined by Linco Diagnostic Services using their own kit. Linco's Porcine/Canine Growth Hormone radioimmunoassay kit (RIA) (PGH-46HK) has been developed to quantitate Growth Hormone in plasma, serum, and tissue culture media. […]

human GHRH receptor = molecular target: T1, human GHRH receptor (Homo sapiens, UniProt Q02643); assay: Competitive 125I-GHRH binding assay in BHK cell membrane preparations expressing the human GHRH receptor
T1 construct: expressed in transfected cells; host or cells: BHK (baby hamster kidney) 570 cells
T1 sequence (Q02643 23-423): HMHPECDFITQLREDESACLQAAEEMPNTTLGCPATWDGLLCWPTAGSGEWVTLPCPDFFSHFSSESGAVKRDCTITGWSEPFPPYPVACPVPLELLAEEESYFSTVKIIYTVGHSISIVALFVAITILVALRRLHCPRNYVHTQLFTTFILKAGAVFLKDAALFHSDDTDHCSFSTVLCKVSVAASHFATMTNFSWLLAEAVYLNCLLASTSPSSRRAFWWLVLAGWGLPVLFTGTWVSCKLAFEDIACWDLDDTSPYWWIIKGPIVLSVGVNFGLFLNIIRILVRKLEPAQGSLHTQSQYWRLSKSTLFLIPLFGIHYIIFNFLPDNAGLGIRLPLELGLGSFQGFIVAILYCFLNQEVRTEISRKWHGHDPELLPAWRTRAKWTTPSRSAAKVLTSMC
Procedure: Non specific binding was determined in presence of 1 μM hGHRH(1-29)NH2. Incubation was carried out at equilibrium (23° C., 60 min) and stopped by centrifugation (12,000 g, 5 min, at 4° C.). The radioactivity content in pellets was determined by gamma counting. The affinity of hGHRH(1-29) NH2 was tested in each experiment to assess the validity of the assay and determine the relative affinity of the analogues.
Values represent the mean±SEM of 3 experiments performed in triplicate for the analogues and the mean±SEM of 2 experiments performed in triplicate for hGHRH(1-44) NH2.
For the binding assay results presented in Tables 8 to 11, values represent the mean±SEM of 8 independent experiments performed in triplicate for the analogues and the mean±SEM of 4 experiments performed in triplicate for hGHRH(1-29)NH2. […] The relative affinity was obtained by taking the ratio IC50 of hGHRH (1-29)-NH2/IC50 analogue.

- R2 (60 min): Relative resistance to in vitro proteolysis in comparison with hGHRH(1-29)NH2 ([1]; 60-min incubation in human serum): 1.55 ± 0.04
- R2 (180 min): Relative resistance to in vitro proteolysis in comparison with hGHRH(1-29)NH2 ([1]; 180-min incubation in human serum): 2.93 ± 0.87
- Mean residual amount ([1]; human serum, incubation time 0 min): 100%
- Mean residual amount ([1]; human serum, incubation time 420 min): 50%
- remaining at 3 h, 15 µM ([1]; human, pooled human serum, 180-min incubation in human serum, read-out: Residual peptide concentration (180 min)): 62 ± 2%
- remaining at 1 h, 15 µM ([1]; human, pooled human serum, human serum, incubation time 60 min, read-out: Mean residual amount): 88%
- remaining at 2 h, 15 µM ([1]; human, pooled human serum, human serum, incubation time 120 min, read-out: Mean residual amount): 76%
- remaining at 3 h, 15 µM ([1]; human, pooled human serum, human serum, incubation time 180 min, read-out: Mean residual amount): 63%
- remaining at 7 h, 15 µM ([1]; human, pooled human serum, human serum, incubation time 420 min, read-out: Mean residual amount): 50%
- Residual concentration ([2]; incubation 0 min): 100 ± 0 % of initial concentration
- remaining at 8 min, 15 µM ([2]; male, Sprague Dawley, diluted 1/100, incubation 8 min, read-out: Residual concentration): 92 ± 5%
- remaining at 0.25 h, 15 µM ([2]; male, Sprague Dawley, diluted 1/100, incubation 15 min, read-out: Residual concentration): 82 ± 6%
- remaining at 0.5 h, 15 µM ([2]; male, Sprague Dawley, diluted 1/100, incubation 30 min, read-out: Residual concentration): 74 ± 7%
- remaining at 1 h, 15 µM ([2]; male, Sprague Dawley, diluted 1/100, incubation 60 min, read-out: Residual concentration): 50 ± 3%
- remaining at 1 h, 15 µM (in vitro; Mean residual amount): 92%
- remaining at 2 h, 15 µM (in vitro; Mean residual amount): 84%
- remaining at 3 h, 15 µM (in vitro; Mean residual amount): 78%
- remaining at 7 h, 15 µM (in vitro; Mean residual amount): 75%
- remaining at 3 h, 15 µM (in vitro; Residual peptide concentration): 74 ± 7%
- IC50 (human GHRH receptor; Table 7, mean±SEM of 3 experiments (analogue) or 2 experiments (hGHRH(1-44)NH2) in triplicate): no significant difference was observed
- Relative binding affinity (R1) in comparison with hGHRH(1-29)NH2 in BHK cells expressing the hGHRH receptor (human GHRH receptor; ratio IC50 of hGHRH(1-29)-NH2/IC50 analogue, mean±SEM): 939 ± 249
Structure (SMILES): CC[C@H](C)[C@H](NC(=O)[C@H](C)NC(=O)[C@H](CC(=O)O)NC(=O)[C@@H](C)NC(=O)[C@@H](N)Cc1ccc(O)cc1)C(=O)N[C@@H](Cc1ccccc1)C(=O)N[C@H](C(=O)N[C@@H](CC(N)=O)C(=O)N[C@@H](CO)C(=O)N[C@H](Cc1ccc(O)cc1)C(=O)N[C@@H](CCCNC(=N)N)C(=O)N[C@@H](CCCCN)C(=O)N[C@H](C(=O)N[C@@H](CC(C)C)C(=O)N[C@H](C)C(=O)N[C@@H](CCC(N)=O)C(=O)N[C@@H](CC(C)C)C(=O)N[C@@H](CO)C(=O)N[C@@H](C)C(=O)N[C@@H](CCCNC(=N)N)C(=O)N[C@@H](CCCCN)C(=O)N[C@@H](CCCCN)C(=O)N[C@@H](CC(C)C)C(=O)N[C@@H](CCC(N)=O)C(=O)N[C@@H](CC(=O)O)C(=O)N[C@H](C(=O)N[C@@H](CCSC)C(=O)N[C@@H](CO)C(=O)N[C@@H](CCCNC(=N)N)C(N)=O)[C@@H](C)CC)C(C)C)[C@@H](C)O [GHRH analogue #5, [D-Ala^2, D-Tyr^10, D-Ala^15, Lys^22] hGHRH(1-29)-NH2] (H-Y[dA]DAIFTNS[dY]RKVL[dA]QLSARKKLQDIMSR-NH2)
- Residual concentration ([2]; incubation 60 min): significantly higher than that of either GHRH analogue 1, 2 or 3
- GH response compared with response to natural hGHRH(1-44)NH2 (male Beagle dog): significantly larger

Reference: US20090023646A1, “GHRH analogues” (Centre Hospitalier de L'Universite de Montreal (CHUM), priority 2002, published 2009)
